Results published in ChEMBL document CHEMBL5291721, “A preclinical secondary pharmacology resource illuminates target-adverse drug reaction associations of marketed drugs” (Nat Commun, 2023).
“And” between values parts separate entries of the source, which are not always exact repeats. Equal entries are not always repeated.

Columns and labels:
[1] = target: T1, Equilibrative nucleoside transporter 1 (Homo sapiens, UniProt Q99808)
T1 sequence (Q99808 whole entry): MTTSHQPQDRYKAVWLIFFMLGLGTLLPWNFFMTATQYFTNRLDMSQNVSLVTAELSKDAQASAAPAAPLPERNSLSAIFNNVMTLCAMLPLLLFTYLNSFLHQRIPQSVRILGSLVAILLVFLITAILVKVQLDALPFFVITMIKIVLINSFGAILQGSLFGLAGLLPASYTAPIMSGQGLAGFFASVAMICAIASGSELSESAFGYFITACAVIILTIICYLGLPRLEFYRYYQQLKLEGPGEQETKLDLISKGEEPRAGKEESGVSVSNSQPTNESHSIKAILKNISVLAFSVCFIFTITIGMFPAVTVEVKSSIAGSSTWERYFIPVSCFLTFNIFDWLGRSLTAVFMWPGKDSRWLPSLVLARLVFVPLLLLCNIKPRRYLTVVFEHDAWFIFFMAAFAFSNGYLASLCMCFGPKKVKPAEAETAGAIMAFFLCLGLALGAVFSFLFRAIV

[2] = target: T2, Amine oxidase [flavin-containing] A (Homo sapiens, UniProt P21397); format: functional
T2 sequence (P21397 whole entry): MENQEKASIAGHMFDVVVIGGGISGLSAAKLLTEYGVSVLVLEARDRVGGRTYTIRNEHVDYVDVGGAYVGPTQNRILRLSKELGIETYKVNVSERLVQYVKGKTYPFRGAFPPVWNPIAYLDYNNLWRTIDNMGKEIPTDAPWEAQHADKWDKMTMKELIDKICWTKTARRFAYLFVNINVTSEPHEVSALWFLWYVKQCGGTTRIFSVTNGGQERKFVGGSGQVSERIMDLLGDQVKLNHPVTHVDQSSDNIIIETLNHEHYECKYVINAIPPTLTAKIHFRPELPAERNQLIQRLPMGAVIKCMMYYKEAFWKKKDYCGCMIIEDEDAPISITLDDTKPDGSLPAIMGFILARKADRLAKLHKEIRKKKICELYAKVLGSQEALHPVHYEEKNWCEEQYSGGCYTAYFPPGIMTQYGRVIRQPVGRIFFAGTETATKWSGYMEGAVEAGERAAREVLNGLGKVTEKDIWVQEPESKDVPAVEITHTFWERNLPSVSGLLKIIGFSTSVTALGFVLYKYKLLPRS

[3] = target: D(1A) dopamine receptor (Homo sapiens, UniProt P21728)
Chain of D(1A) dopamine receptor (P21728 whole entry): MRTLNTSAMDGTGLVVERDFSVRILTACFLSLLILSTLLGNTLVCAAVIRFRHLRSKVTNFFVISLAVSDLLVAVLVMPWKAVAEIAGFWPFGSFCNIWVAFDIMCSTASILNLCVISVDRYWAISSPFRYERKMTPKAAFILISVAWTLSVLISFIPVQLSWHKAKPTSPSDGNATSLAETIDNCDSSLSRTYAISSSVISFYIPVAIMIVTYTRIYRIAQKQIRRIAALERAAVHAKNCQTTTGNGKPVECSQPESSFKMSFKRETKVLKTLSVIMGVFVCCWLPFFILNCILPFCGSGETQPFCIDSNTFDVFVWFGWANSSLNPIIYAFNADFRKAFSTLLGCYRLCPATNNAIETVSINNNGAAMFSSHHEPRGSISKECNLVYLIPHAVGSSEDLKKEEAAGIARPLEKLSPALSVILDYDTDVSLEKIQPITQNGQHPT

[4] = target: T3, 5-hydroxytryptamine receptor 3A (Homo sapiens, UniProt P46098); format: functional
T3 sequence (P46098 whole entry): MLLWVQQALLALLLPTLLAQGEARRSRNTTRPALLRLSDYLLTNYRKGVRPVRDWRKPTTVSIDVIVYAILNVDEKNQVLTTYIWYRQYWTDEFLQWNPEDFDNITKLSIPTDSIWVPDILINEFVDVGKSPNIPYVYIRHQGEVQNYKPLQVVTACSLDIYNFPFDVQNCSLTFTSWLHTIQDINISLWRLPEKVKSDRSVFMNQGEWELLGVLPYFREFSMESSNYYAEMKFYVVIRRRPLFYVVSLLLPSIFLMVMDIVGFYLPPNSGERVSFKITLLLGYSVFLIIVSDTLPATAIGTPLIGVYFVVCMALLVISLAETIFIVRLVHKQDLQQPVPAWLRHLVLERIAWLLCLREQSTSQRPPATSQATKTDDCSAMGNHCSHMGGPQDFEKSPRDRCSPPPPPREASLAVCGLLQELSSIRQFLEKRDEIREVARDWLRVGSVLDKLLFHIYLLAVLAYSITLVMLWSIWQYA

[5] = target: Gamma-aminobutyric acid receptor subunit alpha-1/alpha-2/beta-2/gamma-2 (Homo sapiens, UniProt P14867+P18507+P47869+P47870); format: functional, cell-based
Chain of Gamma-aminobutyric acid receptor subunit alpha-1/alpha-2/beta-2/gamma-2 (P14867 whole entry): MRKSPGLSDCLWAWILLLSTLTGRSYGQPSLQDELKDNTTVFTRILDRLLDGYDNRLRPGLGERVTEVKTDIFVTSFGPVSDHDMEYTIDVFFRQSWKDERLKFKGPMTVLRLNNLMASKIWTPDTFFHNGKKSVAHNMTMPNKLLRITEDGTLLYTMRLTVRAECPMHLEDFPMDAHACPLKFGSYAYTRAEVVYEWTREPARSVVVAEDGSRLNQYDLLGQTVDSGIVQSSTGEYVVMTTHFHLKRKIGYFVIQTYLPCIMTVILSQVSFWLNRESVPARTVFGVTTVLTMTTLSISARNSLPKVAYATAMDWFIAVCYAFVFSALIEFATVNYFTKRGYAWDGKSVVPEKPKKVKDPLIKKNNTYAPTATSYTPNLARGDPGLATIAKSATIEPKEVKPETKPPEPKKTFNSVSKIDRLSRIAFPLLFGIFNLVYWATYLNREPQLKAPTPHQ
Chain of Gamma-aminobutyric acid receptor subunit alpha-1/alpha-2/beta-2/gamma-2 (P47870 whole entry): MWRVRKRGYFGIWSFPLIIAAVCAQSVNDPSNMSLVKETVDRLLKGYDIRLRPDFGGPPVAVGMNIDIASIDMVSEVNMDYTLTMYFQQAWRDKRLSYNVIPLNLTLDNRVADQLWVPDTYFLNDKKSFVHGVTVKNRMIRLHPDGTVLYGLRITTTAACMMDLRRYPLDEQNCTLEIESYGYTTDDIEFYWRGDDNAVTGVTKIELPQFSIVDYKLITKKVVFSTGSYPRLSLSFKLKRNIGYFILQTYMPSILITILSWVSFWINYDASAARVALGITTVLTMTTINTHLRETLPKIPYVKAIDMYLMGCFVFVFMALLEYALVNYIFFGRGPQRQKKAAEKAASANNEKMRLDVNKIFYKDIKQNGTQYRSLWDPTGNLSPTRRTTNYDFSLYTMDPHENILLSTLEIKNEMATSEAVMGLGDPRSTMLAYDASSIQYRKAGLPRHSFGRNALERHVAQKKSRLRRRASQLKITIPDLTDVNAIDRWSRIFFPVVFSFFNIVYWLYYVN
Chain of Gamma-aminobutyric acid receptor subunit alpha-1/alpha-2/beta-2/gamma-2 (P18507 whole entry): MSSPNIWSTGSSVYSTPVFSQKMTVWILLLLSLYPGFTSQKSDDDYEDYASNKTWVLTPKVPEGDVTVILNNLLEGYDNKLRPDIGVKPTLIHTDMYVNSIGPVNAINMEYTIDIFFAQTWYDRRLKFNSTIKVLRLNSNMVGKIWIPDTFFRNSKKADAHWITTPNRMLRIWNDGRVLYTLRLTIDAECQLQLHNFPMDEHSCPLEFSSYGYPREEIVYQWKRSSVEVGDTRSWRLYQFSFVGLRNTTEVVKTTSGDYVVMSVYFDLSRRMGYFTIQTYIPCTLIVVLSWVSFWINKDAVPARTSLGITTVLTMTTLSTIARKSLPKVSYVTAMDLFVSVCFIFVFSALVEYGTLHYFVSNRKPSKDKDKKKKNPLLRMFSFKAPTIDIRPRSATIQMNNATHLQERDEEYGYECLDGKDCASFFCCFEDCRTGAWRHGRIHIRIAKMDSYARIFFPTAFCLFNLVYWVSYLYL
Chain of Gamma-aminobutyric acid receptor subunit alpha-1/alpha-2/beta-2/gamma-2 (P47869 whole entry): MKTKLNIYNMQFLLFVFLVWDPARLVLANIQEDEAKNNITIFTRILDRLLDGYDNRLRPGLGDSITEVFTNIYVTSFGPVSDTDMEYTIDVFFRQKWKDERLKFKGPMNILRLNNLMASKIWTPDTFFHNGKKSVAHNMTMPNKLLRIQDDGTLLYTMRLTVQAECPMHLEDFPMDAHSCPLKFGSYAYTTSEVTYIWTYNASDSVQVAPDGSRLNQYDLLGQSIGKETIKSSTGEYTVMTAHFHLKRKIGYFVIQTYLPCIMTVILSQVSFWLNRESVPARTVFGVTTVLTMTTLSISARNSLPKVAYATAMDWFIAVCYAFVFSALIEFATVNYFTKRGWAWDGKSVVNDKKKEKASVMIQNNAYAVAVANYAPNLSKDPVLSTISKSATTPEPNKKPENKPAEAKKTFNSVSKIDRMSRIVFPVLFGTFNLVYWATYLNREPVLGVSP

[6] = target: Glutamate receptor ionotropic, NMDA 1 (Rattus norvegicus, UniProt P35439)
[7] = target: T4, Alpha-1A adrenergic receptor (Homo sapiens, UniProt P35348); format: functional, cell-based
T4 sequence (P35348 whole entry): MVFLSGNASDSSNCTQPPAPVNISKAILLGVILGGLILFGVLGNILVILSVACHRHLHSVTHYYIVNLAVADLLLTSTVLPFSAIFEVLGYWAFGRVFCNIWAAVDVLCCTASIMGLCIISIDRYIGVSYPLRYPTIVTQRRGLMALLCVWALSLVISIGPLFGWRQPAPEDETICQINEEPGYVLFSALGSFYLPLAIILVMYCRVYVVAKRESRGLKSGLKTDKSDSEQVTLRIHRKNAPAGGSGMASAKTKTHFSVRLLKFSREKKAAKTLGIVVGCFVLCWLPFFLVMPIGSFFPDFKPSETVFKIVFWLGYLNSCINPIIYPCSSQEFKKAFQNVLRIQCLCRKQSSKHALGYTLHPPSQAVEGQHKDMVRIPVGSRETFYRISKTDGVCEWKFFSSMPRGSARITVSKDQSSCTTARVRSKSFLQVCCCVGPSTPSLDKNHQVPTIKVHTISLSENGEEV

[8] = target: T5, Endothelin-1 receptor (Homo sapiens, UniProt P25101)
T5 sequence (P25101 whole entry): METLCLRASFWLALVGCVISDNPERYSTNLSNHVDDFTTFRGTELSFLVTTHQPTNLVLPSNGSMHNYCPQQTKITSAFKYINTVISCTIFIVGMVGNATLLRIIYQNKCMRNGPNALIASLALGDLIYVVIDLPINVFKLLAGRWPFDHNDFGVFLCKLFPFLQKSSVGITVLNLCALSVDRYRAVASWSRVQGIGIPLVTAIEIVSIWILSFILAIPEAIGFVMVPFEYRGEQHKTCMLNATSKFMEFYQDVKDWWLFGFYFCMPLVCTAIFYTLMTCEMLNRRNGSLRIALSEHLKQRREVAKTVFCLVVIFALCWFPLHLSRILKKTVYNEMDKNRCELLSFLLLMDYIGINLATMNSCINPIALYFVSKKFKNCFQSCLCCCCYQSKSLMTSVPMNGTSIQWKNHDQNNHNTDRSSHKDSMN

[9] = target: Kappa-type opioid receptor (Homo sapiens, UniProt P41145)
Chain of Kappa-type opioid receptor (P41145 whole entry): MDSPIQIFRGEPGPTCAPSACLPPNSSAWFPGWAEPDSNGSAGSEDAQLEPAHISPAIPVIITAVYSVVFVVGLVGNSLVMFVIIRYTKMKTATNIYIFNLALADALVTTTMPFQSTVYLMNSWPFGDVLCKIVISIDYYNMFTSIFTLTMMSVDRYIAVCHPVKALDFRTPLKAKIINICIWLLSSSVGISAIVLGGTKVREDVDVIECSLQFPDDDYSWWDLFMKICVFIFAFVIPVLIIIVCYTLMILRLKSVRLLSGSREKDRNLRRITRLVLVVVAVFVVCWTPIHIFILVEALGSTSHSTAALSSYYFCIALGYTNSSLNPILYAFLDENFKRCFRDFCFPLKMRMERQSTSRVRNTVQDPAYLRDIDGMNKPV
Also: assay procedure not described here.

`CCCN(CCC)C(=O)Cc1c(-c2ccc(Cl)cc2)nc2ccc(Cl)cn12` [ALPIDEM] was tested, and the AC50 [1] was > 30 µM, the AC50 [2] was > 30 µM and the AC50 [3] was > 10 µM. For the same compound, the AC50 [4] was > 30 µM, the AC50 [5] was > 10 µM and the AC50 [6] was > 30 µM. For the same compound, the AC50 [7] was > 10 µM, the AC50 [8] was > 10 µM and the AC50 [9] was 13 µM.
With `C[C@@H](NCCCc1cccc(C(F)(F)F)c1)c1cccc2ccccc12` the AC50 [1] was > 30 µM, the AC50 [2] was > 30 µM and the AC50 [4] was > 30 µM. The AC50 [5] was > 30 µM, the AC50 [6] was > 30 µM and the AC50 [8] was > 30 µM. The AC50 [9] was > 30 µM.
With `C=CC[C@@H]1/C=C(\C)C[C@H](C)C[C@H](OC)[C@H]2O[C@@](O)(C(=O)C(=O)N3CCCC[C@H]3C(=O)O[C@H](/C(C)=C/[C@@H]3CC[C@@H](O)[C@H](OC)C3)[C@H](C)[C@@H](O)CC1=O)[C@H](C)C[C@@H]2OC` [TACROLIMUS ANHYDROUS] the AC50 [1] was 7.49 µM and > 30 µM, the AC50 [2] was > 30 µM and the AC50 [3] was > 10 µM. For the same compound, the AC50 [4] was > 30 µM, the AC50 [5] was > 30 µM and the AC50 [6] was > 10 µM. For the same compound, the AC50 [8] was > 30 µM and the AC50 [9] was > 10 µM.
For `CC(C)c1nc(N(C)S(C)(=O)=O)nc(-c2ccc(F)cc2)c1/C=C/[C@@H](O)C[C@@H](O)CC(=O)O` [ROSUVASTATIN], the AC50 [1] was > 30 µM, the AC50 [2] was > 30 µM and the AC50 [4] was > 30 µM. The AC50 [5] was > 30 µM, the AC50 [6] was > 30 µM and the AC50 [8] was > 30 µM. The AC50 [9] was > 30 µM.
`COc1cc2nccc(Oc3ccc(NC(=O)C4(C(=O)Nc5ccc(F)cc5)CC4)cc3)c2cc1OC` [CABOZANTINIB] was tested, and the AC50 [1] was > 30 µM, the AC50 [2] was > 30 µM and the AC50 [4] was > 30 µM. For the same compound, the AC50 [5] was > 30 µM, the AC50 [7] was 9.03 µM and the AC50 [8] was > 30 µM.
`OC[C@H]1O[C@@](CO)(O[C@H]2O[C@H](CO)[C@@H](O)[C@H](O)[C@H]2O)[C@@H](O)[C@@H]1O` [SUCROSE] was tested, and the AC50 [1] was > 30 µM, the AC50 [2] was > 30 µM and the AC50 [4] was > 30 µM. The AC50 [5] was > 30 µM, the AC50 [6] was > 30 µM and the AC50 [8] was > 30 µM. The AC50 [9] was > 30 µM.
In the case of `C[C@@H](Oc1cc(-c2cnn(C3CCNCC3)c2)cnc1N)c1c(Cl)ccc(F)c1Cl` [CRIZOTINIB], the AC50 [1] is reported as > 30 µM, the AC50 [2] is reported as 30 µM and the AC50 [3] is reported as > 10 µM. For the same compound, the AC50 [4] was > 30 µM, the AC50 [5] was > 30 µM and the AC50 [8] was > 30 µM.
For `CC(S)C(=O)NCC(=O)O` (stereo not drawn) [TIOPRONIN], the AC50 [1] was > 30 µM, the AC50 [2] was > 30 µM and the AC50 [4] was > 30 µM. For the same compound, the AC50 [5] was > 30 µM and the AC50 [8] was > 30 µM.
In the case of `CN(C)CCC[C@@]1(c2ccc(F)cc2)OCc2cc(C#N)ccc21` [ESCITALOPRAM], the AC50 [1] is reported as > 30 µM, the AC50 [2] is reported as > 30 µM and the AC50 [4] is reported as > 30 µM. For the same compound, the AC50 [5] was > 30 µM, the AC50 [6] was > 30 µM and the AC50 [8] was > 30 µM. For the same compound, the AC50 [9] was > 30 µM.
`CCN1CCN(Cc2ccc(Nc3ncc(F)c(-c4cc(F)c5nc(C)n(C(C)C)c5c4)n3)nc2)CC1` [ABEMACICLIB] was tested, and the AC50 [1] was > 30 µM, the AC50 [2] was > 30 µM and the AC50 [4] was > 30 µM. The AC50 [5] was > 30 µM and the AC50 [8] was > 30 µM.
In the case of `N[C@@H](CC(=O)N1CCn2c(nnc2C(F)(F)F)C1)Cc1cc(F)c(F)cc1F` [SITAGLIPTIN], the AC50 [1] is reported as > 30 µM, the AC50 [2] is reported as > 30 µM and the AC50 [3] is reported as > 10 µM. For the same compound, the AC50 [4] was > 30 µM, the AC50 [5] was > 30 µM and the AC50 [6] was > 10 µM. For the same compound, the AC50 [8] was > 30 µM and the AC50 [9] was > 10 µM.
With `CN(C)CCc1c[nH]c2ccc(Cn3cncn3)cc12` [RIZATRIPTAN] the AC50 [1] was > 30 µM, the AC50 [2] was > 30 µM and the AC50 [3] was > 10 µM. The AC50 [4] was > 30 µM, the AC50 [5] was > 30 µM and the AC50 [6] was > 30 µM. The AC50 [8] was > 30 µM and the AC50 [9] was > 30 µM.
